Results on 13 compounds are retold here after US5298626A, “Select cyclopent[b]indoles” (priority 1992, dated 1994).

The target in one test is α2-receptor. In words: 3H-Clonidine Binding: α2-Receptor. More on the design: species or system rat (male Wistar). The note with it: 3 nM 3H-clonidine, rat cortical tissue, pH 7.7. The protocol:
See references 1, 2 and 3 cited below. The interaction of a compound with central α2 -receptors is assessed in the ^3 H-clonidine binding assay.
2. Tris buffer containing physiological ions
3. [4-^3 H]-Clonidine hydrochloride (20-30 Ci/mmol) is obtained from New England Nuclear.
4. Clonidine-HCl is obtained from Boehringer Ingelheim. A stock solution of 0.1 mM clonidine is made up to determine nonspecific binding. This yields a final concentration of 1 μM in the assay (20 μl to 2 ml).
Male Wistar rats are sacrificed by decapitation and the cortical tissue rapidly dissected. The tissue is homogenized in 50 volumes of 0.05M Tris buffer, pH 7.7 (buffer 1b) with the Brinkman Polytron, then centrifuged at 40,000 g for 15 minutes. The supernatant is discarded and the pellet re-homogenized in the original volume of 0.05M Tris buffer, pH 7.7 and re-centrifuged as before. The supernate is discarded and the final pellet re-homogenized in 50 volumes of buffer 2b. This tissue suspension is then stored on ice. The final tissue concentration is […]. Specific binding is 1% of the total added ligand and 80% of total bound ligand.
100 μl--0.5M Tris-physiological salts, pH 7.7 (buffer 2a)
20 μl--Vehicle (for total binding) or 0. 1 mM clonidine (for nonspecific binding) or appropriate drug concentration
50 μl--^3 H-clonidine stock
1000 μl tissue suspension
Tissue homogenates are incubated for 20 minutes at […] with 3 nM 3 H-clonidine and varying drug concentrations, and thereafter immediately filtered under reduced pressure on Whatman GF/B filters. The filters are washed with three five ml volumes of ice-cold 0.05M Tris buffer, pH 7.7, and thereafter transferred to scintillation vials. Ten ml of Liquiscint counting solution is added to each sample which is then counted by liquid scintillation spectroscopy. Specific clonidine binding is defined as the difference between total bound and […]. The percent inhibition at each drug concentration is the mean of triplicate determinations.

The next test concerns the target T1, MAO-A (Rattus norvegicus, UniProt P21396).
T1 construct: served as the tissue source for mitochondrial MAO; from tissue; host or cells: whole brain minus cerebellum of male Wistar rats, P2 pellet (18,000 g)
T1 sequence (P21396 1-526): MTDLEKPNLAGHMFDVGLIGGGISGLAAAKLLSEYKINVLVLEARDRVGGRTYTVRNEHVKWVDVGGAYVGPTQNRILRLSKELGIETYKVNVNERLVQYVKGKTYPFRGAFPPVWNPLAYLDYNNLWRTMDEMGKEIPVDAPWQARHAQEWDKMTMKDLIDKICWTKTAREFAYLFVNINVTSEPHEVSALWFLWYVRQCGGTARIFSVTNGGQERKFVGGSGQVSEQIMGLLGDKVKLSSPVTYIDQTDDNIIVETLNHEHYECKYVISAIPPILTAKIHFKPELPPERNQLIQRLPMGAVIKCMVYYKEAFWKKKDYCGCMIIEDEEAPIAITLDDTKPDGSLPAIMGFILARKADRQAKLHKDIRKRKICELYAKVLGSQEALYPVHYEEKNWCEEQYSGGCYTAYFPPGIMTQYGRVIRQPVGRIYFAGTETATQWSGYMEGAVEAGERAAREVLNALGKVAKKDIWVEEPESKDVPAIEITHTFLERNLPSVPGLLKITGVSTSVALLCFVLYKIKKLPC
As to the kind of experiment: biochemical. Also on record: species or system rat (male Wistar).

The target of another test is T2, MAO-B (Rattus norvegicus, UniProt P19643).
T2 construct: served as the tissue source for mitochondrial MAO; from tissue; host or cells: whole brain minus cerebellum of male Wistar rats, P2 pellet (18,000 g)
T2 sequence (P19643 1-520): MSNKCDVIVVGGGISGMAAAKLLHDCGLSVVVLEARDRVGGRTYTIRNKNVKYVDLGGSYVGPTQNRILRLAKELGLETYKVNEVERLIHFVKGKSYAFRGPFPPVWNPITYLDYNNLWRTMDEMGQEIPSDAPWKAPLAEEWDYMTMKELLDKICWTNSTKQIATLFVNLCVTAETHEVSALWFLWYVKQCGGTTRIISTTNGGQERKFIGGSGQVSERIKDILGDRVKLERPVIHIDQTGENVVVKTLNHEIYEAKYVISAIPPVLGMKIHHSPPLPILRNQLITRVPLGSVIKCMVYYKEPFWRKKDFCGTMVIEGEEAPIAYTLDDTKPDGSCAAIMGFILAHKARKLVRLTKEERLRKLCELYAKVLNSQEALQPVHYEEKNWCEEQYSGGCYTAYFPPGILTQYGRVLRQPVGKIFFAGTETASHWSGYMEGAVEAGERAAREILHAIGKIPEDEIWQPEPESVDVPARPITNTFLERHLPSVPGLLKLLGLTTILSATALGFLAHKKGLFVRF
In words: biochemical. Also on record: species or system rat (male Wistar).

The target of test [1] is T3, Brain AChE (acetylcholinesterase) (Rattus norvegicus, UniProt P37136).
T3 construct: corpora striata dissected free, weighed and homogenized in 19 volumes; from tissue; host or cells: corpora striata of male Wistar rats, whole homogenate
T3 sequence (P37136 32-614): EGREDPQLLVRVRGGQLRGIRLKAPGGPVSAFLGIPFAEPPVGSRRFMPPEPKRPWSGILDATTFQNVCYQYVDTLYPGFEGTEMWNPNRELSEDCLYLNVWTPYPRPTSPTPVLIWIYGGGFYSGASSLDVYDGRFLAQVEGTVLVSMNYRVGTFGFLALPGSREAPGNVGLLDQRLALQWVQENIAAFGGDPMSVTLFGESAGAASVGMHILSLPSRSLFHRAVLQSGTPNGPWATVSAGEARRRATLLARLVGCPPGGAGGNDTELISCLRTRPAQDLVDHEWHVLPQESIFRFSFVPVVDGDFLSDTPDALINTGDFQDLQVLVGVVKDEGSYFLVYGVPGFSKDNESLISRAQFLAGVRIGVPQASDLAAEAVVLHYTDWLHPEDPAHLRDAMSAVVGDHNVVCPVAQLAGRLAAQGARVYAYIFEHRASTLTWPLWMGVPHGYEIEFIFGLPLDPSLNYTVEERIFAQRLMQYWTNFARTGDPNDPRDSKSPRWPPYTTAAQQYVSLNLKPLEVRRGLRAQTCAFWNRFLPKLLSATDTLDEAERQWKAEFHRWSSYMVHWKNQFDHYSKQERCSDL
As to the kind of experiment: biochemical. Also on record: species or system rat (male Wistar). The following applies: rat striatum, read-out: Inhibitory Concentration, IC50. As to the method:
Cholinesterases are found throughout the body, both in the brain and in serum.
In Vitro Inhibition of Acetylcholinesterase Activity in Rat Striatum
The method described below was used in this invention for assaying cholinesterase activity. This is a modification of the method of Ellman et al., Biochem. Pharmacol. 7, 88 (1961).
1. 0.05M Phosphate buffer, pH 7.2
4. A 2 mM stock solution of the test drug is made up in a suitable solvent and q.s. to volume with 0.5 mM DTNB (reagent 3). […] If active, IC50 values are determined from the inhibitory activity of subsequent concentrations.
Male Wistar rats are decapitated, brains rapidly removed, corpora striata dissected free, weighed and homogenized in 19 volumes (approximately 7 mg protein/ml) of 0.05M phosphate buffer, pH 7.2 using a Potter-Elvehjem homogenizer.
Enzyme activity is measured with the Beckman DU-50 spectrophotometer. This method can be used for IC50 determinations and for measuring kinetic constants.
Blank values are determined for each run to control for non-enzymatic hydrolysis of substrate and these values are automatically subtracted by the kindata program available on kinetics soft-pac module. This program also calculates the rate of absorbance change for each cuvette.
Substrate concentration is 10 mM diluted 1:2 in assay yielding final concentration of 5 mM. […] IC50 values are calculated from log-probit analysis

Test [2] deals with Scopolamine Induced Memory Deficit. It is filed as in vivo, mice. As to the method:
In this assay mice are tested for their ability to remember an unpleasant stimulus for a period of 24 hours. A mouse is placed in a chamber that contains a dark compartment; a strong incandescent light drives it to the dark compartment, where an electric shock is administered through metal plates on the floor. The animal is removed from the testing apparatus and tested again, 24 hours later, for the ability to remember the electric shock.
If scopolamine, an anticholinergic that is known to cause memory impairment, is administered before an animal's initial exposure to the test chamber, the animal re-enters the dark compartment shortly after being placed in the test chamber 24 hours later. This effect of scopolamine is blocked by an active test compound, resulting in a greater interval before re-entry into the dark compartment.
The results for an active compound are expressed as the percent of a group of animals in which the effect of scopolamine is blocked, as manifested by an increased interval between being placed in the test chamber and re-entering the dark compartment.

Test [3] deals with monoamine oxidase type A and type B. The following applies: literature, reference (2); cited from earlier work.

Molecules are shown by their SMILES. Several values for one entry are separate records, joined by “and”; a condition that tells them apart may be missing. Equal entries are not always repeated. Where two headings read alike, the source gives them in different places.

Experimental for MAO-A: Inhibition of Type A and Type B Monoamine Oxidase
Activity in Rat Brain Synaptosomes
(§1) To determine the selective inhibition of the two forms of monoamine oxidase (MAO).
Although various methods for measuring MAO activity are available, the described method involves the extraction of the radiolabeled deaminated metabolites of [^3 H]-5HT or [^14 C]-β-phenethylamine.
a. Serotonin creatine SO4 (5HT) is obtained from Sigma Chemical Company. A 5 mM stock solution is made up in 0.01N HCl. This is used to dilute the specific activity of the [^3 H]-5HT. b. [^3 H]-5-Hydroxytryptamine binoxalate (20-30 Ci/mmol) is obtained from New England Nuclear. c. Add 12 μl of [^3 H]-5HT to 2 ml of the 5 mM 5HT solution. (Final amine concentration in the assay is 200 μM: see below.)
5. Equal amounts of MAO-A (5HT) and MAO-B (PEA) substrates are combined for simultaneously testing both MAO types, i.e. mixed stock solution of 2.5 mM 5HT and 2.5 mM PEA, 40 μl of this mixed solution gives a 200 μM final concentration of each amine in the assay. When testing only one MAO type, the individual 5 mM stock solutions must be diluted 1: 1 with distilled water prior to adding 40 μl to the incubation mixture; i.e., same 200 μM final amine concentration.
(§2) Male Wistar rats weighting 15-250 grams were sacrificed an removed. Whole brain minus cerebellum was homogenized in 30 volumes of ice-cold, phosphate-buffered 0.25M sucrose, using a Potter-Elvejhem homogenizer. The homogenate as centrifuged at 1000 g for 10 minutes and the supernatant (S1) decanted and recentifuged at 18,000 g for 20 minutes. […]
(§3) Tubes are preincubated for 15 minutes at 37° C. and the assay is started by adding 40 μl of combined substrate ([^3 H]-5HT and [^14 C]-PEA) at 15 second intervals. […] Tissue blank values are determined by adding the acid before the radioactive substrate. […] 10 ml of Liquiscint is added and the samples are counted using window settings for in ^14 C in one channel and ^3 H in the second channel. IC50 values are determined by log-probit analysis.
Experimental for MAO-B: Activity in Rat Brain Synaptosomes
as §1
Although various methods for measuring MAO activity are available, the described method involves the extraction of the radiolabeled deaminated metabolites of [^3 H]-5HT or [^14 C]-β-phenethylamine. This procedure allows MAO-A and MAO-B activities to be measured either simultaneously or individually (3).
A 5 mM stock solution is made up in 0.01N HCl. This is used to dilute the specific activity of the [^14 C]-PEA. b. β-[ethyl-1-^14 C]-phenethylaminehydrochloride(40-50 mCi/mmol) is obtained from New England Nuclear. c. Add 12 μl of [^14 C]-PEA to 2 ml of the 5 mM PEA solution. (Final amine concentration in the assay is 200 μM: see below.)
Equal amounts of MAO-A (5HT) and MAO-B (PEA) substrates are combined for simultaneously testing both MAO types, i.e. mixed stock solution of 2.5 mM 5HT and 2.5 mM PEA, 40 μl of this mixed solution gives a 200 μM final concentration of each amine in the assay. When testing only one MAO type, the individual 5 mM stock solutions must be diluted 1: 1 with distilled water prior to adding 40 μl to the incubation mixture; i.e., same 200 μM final amine concentration.
as §2, §3

Consider `NC1CCC2c3ccccc3NC12` (stereo not shown) [1,2,3,3a,4,8b-Hexahydrocyclopent[b]indol-3-amine 2-naphthalene sulfonate hemihydrate], for which the IC50 on α2-receptor was 1270 nM. With `C#CCNC1CCc2c1[nH]c1ccccc21` (stereo not shown) [1,2,3,4-Tetrahydrocyclopent[b]indol-3-(2-propynyl)amine], the IC50 at MAO-A (substrate [3H]-5HT, 200 μM, read-out: Inhibitory Concentration - IC50, MAO-A) was found to be 290 nM; at MAO-B (substrate [14C]-PEA, 200 μM, read-out: Inhibitory Concentration - IC50, MAO-B) it was 320 nM. `CNC(=O)Oc1ccc2c(c1)c1c(n2C)C(NC2CC2)CC1` (stereo not shown) [3-(N-Cyclopropyl)amino-4-methyl-1,2,3,4-tetrahydrocyclopent[b]indol-7-yl methylcarbamate]: the values for the IC50 (in test [1]; against MAO-A; on MAO-B) were 3500 nM, 320 nM and 420 nM, respectively. In addition, the “% of Animals with Scopolamine Induced Memory Deficit Reversal” value (shortened to “% of Animals”) is given as 27% in test [2] (0.63 mg/kg of body weight, s.c., retest at 24 hours) and 33% in test [2] (2.5 mg/kg of body weight, s.c., retest at 24 hours). For `CNC(=O)Oc1ccc2c(c1)c1c(n2C)C(=NC2CC2c2ccccc2)CC1` (stereo not shown) [4-Methyl-3-[(2-phenylcyclopropyl)imino]-1,2,3,4-tetrahydrocyclopent[b]indol-7-yl methylcarbamate], the results for the IC50 against MAO-A and at MAO-B were 15200 nM and 3700 nM, respectively. The compound `Cn1c2c(c3ccccc31)CCC2N` (stereo not shown) [4-methyl-1,2,3,4-tetrahydrocyclopent[b]indol-3-amine] registered an IC50 at α2-receptor of 1490 nM. As to `CNC(=O)Oc1ccc2c(c1)c1c(n2C)C(NCc2ccccc2)CC1` (stereo not shown) [4-methyl-3-phenylmethylamino-1,2,3,4-tetrahydrocyclopent[b]indol-7-yl methylcarbamate], the IC50 in test [1] is 1100 nM and 6200 nM. Regarding `Cn1c2c(c3cc(O)ccc31)CCC2=NCc1ccccc1` [4-methyl-3-phenylmethylimino-1,2,3,4-tetrahydrocyclopent[b]indol-7-ol], on α2-receptor, the IC50 is 850 nM.

The compound `CN(C)CCC=C1c2ccccc2CCc2ccccc21` [Amitriptyline, reference compound] came in with an IC50 on α2-receptor of 3900 nM. `C#CCN(C)CCCOc1ccc(Cl)cc1Cl` [Clorgyline]: in test [3], the “selectivity for type A / type B monoamine oxidase” value is listed as “selective inhibitor of the type A enzyme”. As to `CC[C@@H]1C(=O)OC[C@@H]1Cc1cncn1C` [Pilocarpine, reference compound], the “% of Animals” value in test [2] (5.0 mg/kg of body weight, s.c., retest at 24 hours) was 13%. Regarding `Nc1c2c(nc3ccccc13)CCCC2` [Tacrine, reference compound], in test [2] (mouse, in vivo), the “% of Animals” value was 13%. On to `CC(C)NNC(=O)c1ccncc1` [iproniazid], for which, in test [3], the “selectivity for type A / type B monoamine oxidase” value is recorded as “nonselective inhibitors”. Take `C#CCN(C)Cc1ccccc1` [pargyline]: the “selectivity for type A / type B monoamine oxidase” value in test [3] is “selective inhibitors of the type B enzyme”.
